According to patent US20240199634A1, “CYCLIC COMPOUNDS AND METHODS OF USING SAME” (SCHRÖDINGER, INC., priority 2021, published 2024):

Assays:
[1] = tested on: phosphorylation of MCM2 S53 in colo205 cells; experiment: Phosphorylated MCM2 MSD Electrochemiluminescence Assay; format: cell-based; conditions: Homo sapiens, COLO 205, 20 h incubation, read-out: pMCM2-S53 MSD Colo205 IC50
Experimental: Phosphorylated MCM2 MSD Electrochemiluminescence Assay
The effect of CDC7 inhibitors on cellular phosphorylation of the CDC7 substrate MCM2 was determined using the following protocol:
A total of 40,000 colo205 cells in 100 μL culture medium (1640 medium+10% Fetal bovine serum+1% Penicillin-Streptomycin) were plated in 96-well cell culture plates and allowed to attach for 6 hours. 3-fold serial dilutions of test compounds were prepared in completed PBS at 25× final concentration and 4 μL of each were added to the cells and incubated for 20 hours at 37° C., 5% CO2. Each concentration was tested in duplicate. After the 20 h incubation, cells were washed with 150 μL PBS and lysed with 40 μL MSD lysis buffer (obtained from Meso Scale Diagnostics) supplied with 1× complete ULTRA cocktail inhibitor (obtained from Roche). To detect phosphorylation of MCM2 S53, 30 μL of capture antibody solution (obtained from Abnova, catalog number H00004171-M01, 1:500) was added to each well of MULTI-ARRAY 96-well High Bind Plate, and incubated overnight. The antibody solution was removed, wells blocked with BSA solution and plates washed, followed by addition of 30 μl of cell lysate per well. After 2 h incubation, plates were washed. 30 μL of 1× detection antibody solution (obtained from Abcam, catalog number ab109133, 1:1000) was then added to each well and incubate for 1 hour. Plates were washed and 30 μL of 1× secondary antibody solution (obtained from MSD, catalog number R32AB-1, 1:5000) was added to each well and incubate for 1 hour. Plates were washed and 150 μL of 1× Read Buffer T was added to each well of the MSD plate. The electrochemiluminescence signal was measured on a MESO SECTOR 5600 plate reader. The percentage of remaining phosphorylated MCM2 signal was calculated following the equation below.
[formula] • HC (high control): Cells treated with DMSO • Cpds: Cells treated with test compounds • LC (low control): Cells treated with positive control CDC7 inhibitor

[2] = molecular target: T1, Full length human CDC7 protein co-expressed with DBF4 (Homo sapiens, UniProt O00311); experiment: CDC7 Kinase Biochemical Assay (ADP-Glo, PDKtide substrate); conditions: 0.1 nM CDC7/DBF4, 1 μM ATP, 10 μM PDKtide, 4 h reaction
T1 construct: Full length human CDC7 protein co-expressed with DBF4; purchased SignalChem (China)
T1 sequence (O00311 whole entry): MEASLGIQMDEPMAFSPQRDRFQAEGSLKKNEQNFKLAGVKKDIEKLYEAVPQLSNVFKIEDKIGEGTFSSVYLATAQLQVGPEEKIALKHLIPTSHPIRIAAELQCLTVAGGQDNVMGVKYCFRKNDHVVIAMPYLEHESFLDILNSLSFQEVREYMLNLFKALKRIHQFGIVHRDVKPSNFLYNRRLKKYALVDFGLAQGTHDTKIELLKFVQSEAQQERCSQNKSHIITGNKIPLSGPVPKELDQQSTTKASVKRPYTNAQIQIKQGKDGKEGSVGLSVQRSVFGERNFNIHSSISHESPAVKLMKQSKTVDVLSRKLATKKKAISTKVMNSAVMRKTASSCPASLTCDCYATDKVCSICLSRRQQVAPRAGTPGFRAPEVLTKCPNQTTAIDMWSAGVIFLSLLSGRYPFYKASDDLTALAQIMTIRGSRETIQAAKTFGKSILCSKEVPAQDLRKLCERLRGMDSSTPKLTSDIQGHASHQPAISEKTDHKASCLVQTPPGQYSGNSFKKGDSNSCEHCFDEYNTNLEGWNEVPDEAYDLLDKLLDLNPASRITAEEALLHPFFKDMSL
T1 sequence (Q9UBU7 whole entry partner): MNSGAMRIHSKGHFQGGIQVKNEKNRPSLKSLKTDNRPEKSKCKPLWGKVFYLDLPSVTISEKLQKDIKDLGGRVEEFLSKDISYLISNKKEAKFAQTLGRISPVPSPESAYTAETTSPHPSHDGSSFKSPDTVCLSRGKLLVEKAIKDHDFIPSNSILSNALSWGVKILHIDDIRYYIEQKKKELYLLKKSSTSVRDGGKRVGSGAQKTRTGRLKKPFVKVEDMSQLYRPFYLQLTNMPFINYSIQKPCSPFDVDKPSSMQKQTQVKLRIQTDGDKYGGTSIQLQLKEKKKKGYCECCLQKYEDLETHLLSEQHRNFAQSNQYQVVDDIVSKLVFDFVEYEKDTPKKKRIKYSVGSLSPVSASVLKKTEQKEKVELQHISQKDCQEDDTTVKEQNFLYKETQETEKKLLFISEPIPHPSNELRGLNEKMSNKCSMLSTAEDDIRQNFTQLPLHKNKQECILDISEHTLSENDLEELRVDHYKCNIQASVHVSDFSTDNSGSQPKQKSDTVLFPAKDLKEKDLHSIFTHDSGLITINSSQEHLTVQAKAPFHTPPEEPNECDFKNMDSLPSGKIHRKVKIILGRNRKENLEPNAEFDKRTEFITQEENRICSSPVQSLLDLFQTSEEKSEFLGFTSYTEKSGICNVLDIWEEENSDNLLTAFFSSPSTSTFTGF
Experimental: CDC7 Kinase Biochemical Assay PROTOCOL:
Full length human CDC7 protein co-expressed with DBF4 was purchased from SignalChem (China). CDC7 kinase activity was determined with PDKtide (SignalChem) as a substrate and by measuring ADP production using the ADP-Glo™ Kinase Assay kit (Promega) following the manufacturer's instructions. The kinase reaction was performed using the following conditions: Buffer: 40 mM Tris pH 7.5, 20 mM MgCl2, 0.1 mg/mL BSA and 50 μM DTT. Final reaction mix contained 0.1 nM CDC7/DBF4, 1 μM ATP and 10 μM PDKtide. The kinase reaction time was 4 h. The ADP-Glo signal was measured using an EnVision plate reader (PerkinELmer).
Percent inhibition of CDC7 kinase activity was calculated based on the following formula:
[formula] • SSample: the signal of compounds • SHigh Ctrl: the signal of high control (DMSO) • SLow Ctrl: the signal of low control (positive control CDC7 inhibitor)

SMILES	IC50 [1] [nM]	IC50 [2] [nM]
Cn1nccc1-c1cc2c3c([nH]c(=O)c2s1)C(O)(C(C)(C)C)COC3 (single isomer, unassigned) [Compound 89]	5 to 20	≤ 1
Cc1n[nH]cc1-c1cc2c3c([nH]c(=O)c2s1)C(O)(C(C)(C)C)COC3 (single isomer, unassigned) [Compound 91]	≤ 5	> 10
O=c1[nH]c2c(c3cc(-c4cn[nH]c4)sc13)C1CCC2(O)CC1 [Compound 8, 6-hydroxy-2-(1H-pyrazol-4-yl)-6,7,8,9-tetrahydro-6,9-ethanothieno[2,3-c]quinolin-4(5H)-one]	20 to 50	≤ 1

Other lines, results leading:

IC50 [1] [nM]	IC50 [2] [nM]	SMILES
20 to 50	≤ 1	COC12CCC(CC1)c1c2[nH]c(=O)c2sc(-c3cn[nH]c3)cc12 [Compound 7, 6-methoxy-2-(1H-pyrazol-4-yl)-6,7,8,9-tetrahydro-6,9-ethanothieno[2,3-c]quinolin-4(5H)-one]
> 50	1 to 10	CC1(C)COCc2c1[nH]c(=O)c1sc(-c3cn[nH]c3)cc21 [Compound 58, 4,4-dimethyl-8-(1H-pyrazol-4-yl)-1,3,4,5-tetrahydro-6H-pyrano[4,3-b]thieno[3,2-d]pyridin-6-one]
> 50	≤ 1	CC(C)(C)[C@@]1(O)COCc2c1[nH]c(=O)c1sc(N3CCOCC3)cc21 [Compound 85, (S)-4-(tert-butyl)-4-hydroxy-8-morpholino-1,3,4,5-tetrahydro-6H-pyrano[4,3-b]thieno[3,2-d]pyridin-6-one]
20 to 50	≤ 1	CC(C)(C)C1(O)CNCc2c1[nH]c(=O)c1sc(-c3cn[nH]c3)cc21 (centres unmarked) [Compound 93, 4-(tert-butyl)-4-hydroxy-8-(1H-pyrazol-4-yl)-1,3,4,5-tetrahydrothieno[2,3-c][1,6]naphthyridin-6(2H)-one]
